Measured values taken from PMC3152620 (Peptides, 2011).
No end group written: not given here.

Target: human NMB receptor (Homo sapiens, UniProt P28336)
Assay: Binding to hNMB receptors, both cell lines
Conditions: relative to the natural ligand NMB

Chain of human NMB receptor (P28336 whole entry): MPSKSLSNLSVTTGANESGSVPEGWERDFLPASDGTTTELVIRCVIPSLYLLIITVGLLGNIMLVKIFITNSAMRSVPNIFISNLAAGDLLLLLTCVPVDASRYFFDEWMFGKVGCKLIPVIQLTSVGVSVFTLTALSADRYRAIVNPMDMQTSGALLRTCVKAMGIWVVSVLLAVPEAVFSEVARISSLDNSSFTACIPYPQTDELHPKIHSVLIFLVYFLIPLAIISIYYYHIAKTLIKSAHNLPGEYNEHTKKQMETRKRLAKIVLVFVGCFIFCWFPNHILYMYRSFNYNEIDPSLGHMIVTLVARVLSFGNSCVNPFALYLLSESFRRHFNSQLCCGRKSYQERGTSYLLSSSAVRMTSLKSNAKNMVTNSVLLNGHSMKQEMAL

LSWDLPEPRSRAGKIRVHPRGNLWATGHFM-NH2 [NMB30, Neuromedin B (1–30)]
Fold lower affinity for human NMB receptor than NMB: > 3 fold
